The test system of test [1] is retinal lesions. Nature of the test: Retinal lesion size by retinal photography in subjects having vitreomacular traction (VMT). The test is classed as in vivo, human. The source says:
As used herein, the terms “units of diameter” and units made in reference to lesion size or diameter refer to units of diameter of the posterior pole of an eye, which measures ten units in diameter between the vascular arcades. A lesion can be larger than 19 units.
Diagnosis of vitreomacular traction (VMT): VMT can be symptomatic or asymptomatic. Complaints of reduced or distorted vision may or may not be reported by the subject. Measurement of visual acuity (VA) may or may not be normal or reduced in one or both eyes. Measurement for distortion on an Amsler grid may or may not show distortion in one or both eyes. Retinal photography may show signs of VMT in the original color composite image (e.g., upper left photo in four panel photo of FIG. 1A). Further analysis of the choroid (e.g., upper right photo in four panel photo of FIG. 1A), the retina (e.g., lower left photo in four panel photo of FIG. 1A), and the retinal nerve fibre layer (RNFL) (e.g., lower right photo in four panel photo of FIG. 1A), may reveal puckering, fibrosis, lamellar splitting, partial lamellar holes, pseudo macular holes, bulging and/or edema in the choroid, retinal and/or RNFL images. Further analysis with “3-D” images of the choroid, retina and RNFL layers may show elevations diagnostic of VMT, such as, for example, the presence, severity and/or size of puckering, partial lamellar holes, macular holes, bulging or edema. Further, “3-D” images can be useful for determining which layers of the eye tissue are affected by VMT.
Ocular imaging: retinal photographs were taken using a Canon CR-1 Digital Retinal Camera and analyzed using EyeScape Digital Imaging Software, version 7.5.5.
The settings used for taking retinal photographs were such that optimal contrast and brightness for each subject was achieved. Most retinal photographs were taken with a dilated pupil. Some subjects have naturally very large pupils. In these cases, pupil dilation may not have been required to obtain sufficient images. The Canon CR-1 has a setting for small pupils that was used as required.
Data were collected from 40 subjects having symptomatic VMT over a period of 4.5 years.
Subjects were treated daily with lutein and zeaxanthin as described in table 1.

For test [2], the system named is retinal lesions. The description is as above. It counts as in vivo, human. The settings on record: Case 1, lutein (10 mg) every other day, four months.
Where [3] appears, read: Lutein 5 mg, zeaxanthin 0 mg, case 31.
Setting [4] is: Lutein 18 mg, zeaxanthin 0 mg, case 13.
[5] abbreviates: Lutein 20 mg, zeaxanthin 0 mg, case 2.
Where [6] appears, read: Lutein 0 mg, zeaxanthin 1 mg, case 27.

Take `CC1=C[C@H](O)CC(C)(C)[C@H]1/C=C/C(C)=C/C=C/C(C)=C/C=C/C=C(C)/C=C/C=C(C)/C=C/C1=C(C)C[C@@H](O)CC1(C)C` [lutein]: the “OD lesion (units)” value in the test with retinal lesions [1] (setting [3]), in the test on retinal lesions [1] (setting [4]) and in the test on retinal lesions [1] (setting [5]) was 0 units each time. Further, the “OS lesion (units)” value in the test on retinal lesions [1] (setting [3]) is 0.5 units; in the test on retinal lesions [1] (setting [4]), 0 units; in the test on retinal lesions [1] (setting [5]), 3 units. Besides, the “ERM OD size after treatment” value with retinal lesions [2] (from 1.5 units) was 0.5 units. For the same compound, the “OS macular pucker size after treatment” value in the test with retinal lesions [2] (from 6.5 units) is reported as 5.0 units.
As to `CC1=C(/C=C/C(C)=C/C=C/C(C)=C/C=C/C=C(C)/C=C/C=C(C)/C=C/C2=C(C)C[C@@H](O)CC2(C)C)C(C)(C)C[C@H](O)C1` [zeaxanthin], in the test with retinal lesions [1] (setting [6]), the “OD lesion (units)” value was determined as 0.5 units and the “OS lesion (units)” value stood at 0.5 units.

The record behind these values is patent US20140186302A1, “Nutritional Formulations and Method for Treating Diseases” (priority 2012, published 2014).
